Results published in patent US20220211678A1, “USES OF (+)-A-DIHYDROTETRABENAZINE IN METHODS OF TREATING MOVEMENT DISORDER” (ADEPTIO PHARMACEUTICALS LIMITED, priority 2017, published 2022).

Experiments:
VMAT2 = target: T1, VMAT2 (Homo sapiens, UniProt Q05940); test: % VMAT2 blocking by PET scan 6-7 hours after oral dosing of human volunteers (Example 1B); assay type: in vivo; settings: for reduction of level of VMAT2 blocking after 6-7 hours compared to 1-2 hours following administration: 7.5 mg
T1 construct: from tissue; host or cells: brain of living human volunteers, measured by PET
T1 sequence (Q05940 whole entry): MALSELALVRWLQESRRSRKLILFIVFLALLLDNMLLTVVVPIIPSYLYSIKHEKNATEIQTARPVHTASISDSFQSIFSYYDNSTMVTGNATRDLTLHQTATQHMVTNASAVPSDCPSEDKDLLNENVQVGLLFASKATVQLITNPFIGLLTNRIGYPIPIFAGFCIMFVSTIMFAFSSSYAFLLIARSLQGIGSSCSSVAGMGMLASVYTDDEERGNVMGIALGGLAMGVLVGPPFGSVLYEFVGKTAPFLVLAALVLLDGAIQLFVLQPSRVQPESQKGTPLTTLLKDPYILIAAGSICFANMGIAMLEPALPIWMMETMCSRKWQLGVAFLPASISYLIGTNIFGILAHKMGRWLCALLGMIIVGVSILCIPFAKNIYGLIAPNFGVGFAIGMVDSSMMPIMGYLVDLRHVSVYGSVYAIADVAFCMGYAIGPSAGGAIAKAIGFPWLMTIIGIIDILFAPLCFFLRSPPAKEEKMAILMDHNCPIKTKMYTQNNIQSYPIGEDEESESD
From the text: Complete blocking of VMAT2 is considered undesirable as this can lead to unwanted side effects, such as Parkinsonism. […] The levels of VMAT2 blocking can be determined by competitive binding studies using Positron Emission Tomography (PET). By co-administering a radioactive ligand with the compound of interest at various concentrations, the proportion of binding sites occupied can be determined (see for example, Matthews et al., “Positron emission tomography molecular imaging for drug development”, Br. J. Clin. Pharmacol., 73:2, 175-186). Accordingly, the invention also provides:
Volunteers 1 and 2 were the same as volunteers 1 and 2 in Example 1A described above. […] Blood sample were taken from all volunteers 1 to 3 at 2, 4, 6 and 7 hours after drug administration. In addition, in all volunteers PET scans were initiated at 6 hours after drug administration and these were stopped at 7 hours after drug administration.

amphetamine-induced rats = test: Amphetamine-induced locomotor activity and stereotypic behaviour, open field arena (Example 2, Studies 1, 2, 4); assay type: in vivo, rat; settings: for normalised total stereotypic behaviour, compared to vehicle-amphetamine group / total distance travelled, compared to vehicle-amphetamine group: amphetamine at t=30 min; for locomotor activity compared to the vehicle-amphetamine group (conclusion) / stereotypic behaviour compared to the vehicle-amphetamine group (conclusion): risperidone 1 mg/kg
From the text: Dopaminergic models for Tourette's syndrome use systemic or focal administration of dopamine agonists such as amphetamine. After injection with amphetamine, a test animal expresses stereotypic behaviour. In particular, involvement of a dopaminergic system implicated in Tourette's syndrome wild type mice and rats can be stimulated with amphetamine and the resulting hyperactivity and stereotypies can be reversed with dopamine antagonists such as risperidone and haloperidol (Tourette's syndrome—Animal Models for Screening, Charles River Discovery Research Services, Finland).
All animal experiments were carried out according to the National Institute of Health (NIH) guidelines for the care and use of laboratory animals, and approved by the National Animal Experiment Board, Finland. Male CD (Charles River Laboratories, Germany) at weight range of 200-250 g (165-200 g upon arrival) were used for the experiments. Animals were housed at a standard temperature (22±1° C.) and in a light-controlled environment (lights on from 7 am to 8 pm) with ad libitum access to food and water.
Locomotor activity of the rats was tested in open field arena. The open field test was performed during the rat light cycle and under a normal lighting evenly distributed to the test chambers. The paths of the rats were recorded by activity monitor (Med. Associates Inc.).
Dosing the vehicle, vehicle-amphetamine, (+)-α-DHTBZ or risperidone was done prior to LMA test. The rats were placed in the centre of the arena, and the path was recorded for 60 minutes.
(§1) Animals were grouped as follows: • Group 1: 10 rats treated with Vehicle (t=0 min) and Vehicle (t=30 min) • Group 2: 10 rats treated with Vehicle (t=0 min) and Amphetamine (t=30 min) • Group 3: 10 rats treated with (+)-α-DHTBZ 0.5 mg/kg (t=0 min) and Amphetamine (t=30 min) • Group 4: 10 rats treated with (+)-α-DHTBZ 1 mg/kg (t=0 min) and Amphetamine (t=30 min) • Group 5: 10 rats treated with (+)-α-DHTBZ 1.5 mg/kg (t=0 min) and Amphetamine (t=30 min) • Group 6: 10 rats treated with (+)-α-DHTBZ 2 mg/kg (t=0 min) and Amphetamine (t=30 min) • Group 7: 10 rats treated with risperidone 1 mg/kg (t=0 min) and Amphetamine (t=30 min)
(§2) Rats dosed with either vehicle, (+)-α-DHTBZ 0.5 mg/kg, (+)-α-DHTBZ 1 mg/kg, (+)-α-DHTBZ 1.5 mg/kg, (+)-α-DHTBZ 2 mg/kg or Risperidone 1 mg/kg were subjected to LMA testing first for 30 min and then for 60 minutes after vehicle or amphetamine challenge. Resulting locomotor activity was evaluated in 3 min bins and as a total over the testing period.
as §2, with “stereotypic” for “locomotor”
Animals were grouped as follows: • Group 1: 10 rats treated with Vehicle (t=0 min) and Vehicle (t=30 min) • Group 2: 10 rats treated with Vehicle (t=0 min) and Amphetamine (t=30 min) • Group 3: 10 rats treated with (+)-α-DHTBZ 0.1 mg/kg (t=0 min) and Amphetamine (t=30 min) • Group 4: 10 rats treated with (+)-α-DHTBZ 0.25 mg/kg (t=0 min) and Amphetamine (t=30 min) • Group 5: 10 rats treated with risperidone 1 mg/kg (t=0 min) and Amphetamine (t=30 min)
as §1, with “(+)-α-DHTBZ 1” for “(+)-α-DHTBZ 0.5”, “(+)-α-DHTBZ 1.5” for “(+)-α-DHTBZ 1”, “with Valbenazine 1” for “with (+)-α-DHTBZ 1.5”, “with Valbenazine 1.5” for “with (+)-α-DHTBZ 2”

[1] = Study 1, (+)-α-DHTBZ at all the tested doses (0.5, 1, 1.5, 2 mg/kg)

With COc1cc2c(cc1OC)[C@H]1C[C@@H](O)[C@H](CC(C)C)CN1CC2 [(+)-α-dihydrotetrabenazine, (R,R,R)-3-isobutyl-9,10-dimethyloxy-1,3,4,5,7,11b-hexahydro-2H-pyrido[2,1-a]isoquinolin-2-ol] the “% VMAT2 blocking” value (VMAT2; 7.5 mg oral, PET scan 6-7 hours after administration, subject 1 (112 kg)) was 38%, the “% VMAT2 blocking” value (VMAT2; 7.5 mg oral, PET scan 6-7 hours after administration, subject 2 (76 kg)) was 65% and the “% VMAT2 blocking” value (VMAT2; 7.5 mg oral, PET scan 6-7 hours after administration, subject 3 (76 kg)) was 41%. The “% VMAT2 blocking” value (VMAT2; 7.5 mg oral, PET scan 6-7 hours after administration, subject 4 (95 kg)) was 34%, the “% VMAT2 blocking” value (VMAT2; 7.5 mg oral, PET scan 6-7 hours after administration, subject 5 (99 kg)) was 36% and the “reduction of level of VMAT2 blocking after 6-7 hours compared to 1-2 hours following administration” value (VMAT2; subject 1) was 30%. The “reduction of level of VMAT2 blocking after 6-7 hours compared to 1-2 hours following administration” value (VMAT2; subject 2) was 11%, the “% VMAT2 blocking” value (VMAT2; after 6 hours following administration of 7.5 mg) was “greater than 30%” and the “normalised total stereotypic behaviour, compared to vehicle-amphetamine group” value (amphetamine-induced rats; Study 1, 0.5 mg/kg) was “significantly different”. The “normalised total stereotypic behaviour, compared to vehicle-amphetamine group” value (amphetamine-induced rats; Study 1, 1 mg/kg) was “significantly different”, the “normalised total stereotypic behaviour, compared to vehicle-amphetamine group” value (amphetamine-induced rats; Study 1, 1.5 mg/kg) was “significantly different” and the “normalised total stereotypic behaviour, compared to vehicle-amphetamine group” value (amphetamine-induced rats; Study 1, 2 mg/kg) was “significantly different”. The “locomotor activity compared to the vehicle-amphetamine group (conclusion)” value (amphetamine-induced rats; [1]) was “lower locomotor activity”, the “stereotypic behaviour compared to the vehicle-amphetamine group (conclusion)” value (amphetamine-induced rats; [1]) was “reduced stereotypic behaviour” and the “normalised total stereotypic behaviour, compared to vehicle-amphetamine group” value (amphetamine-induced rats; Study 2, 0.1 mg/kg) was “significantly different”. For the same molecule, the “normalised total stereotypic behaviour, compared to vehicle-amphetamine group” value (amphetamine-induced rats; Study 2, 0.25 mg/kg) was “significantly different”, the “locomotor activity compared to the vehicle-amphetamine group (conclusion)” value (amphetamine-induced rats; Study 2, (+)-α-DHTBZ at 0.25 mg/kg) was “lower locomotor activity” and the “stereotypic behaviour compared to the vehicle-amphetamine group (conclusion)” value (amphetamine-induced rats; Study 2, (+)-α-DHTBZ at both the tested doses (0.1, 0.25 mg/kg)) was “reduced stereotypic behaviour”. For the same molecule, the “locomotor activity compared to the vehicle-amphetamine group and the corresponding dose of Valbenazine (conclusion)” value (amphetamine-induced rats; Study 4, 1 mg/kg and 1.5 mg/kg) was “lower locomotor activity”, the “normalised total stereotypic behaviour, compared to vehicle-amphetamine group” value (amphetamine-induced rats; Study 4, 1 mg/kg) was “significantly different” and the “total distance travelled, compared to vehicle-amphetamine group” value (amphetamine-induced rats; Study 4, 1 mg/kg) was “significantly different”. The “normalised total stereotypic behaviour, compared to vehicle-amphetamine group” value (amphetamine-induced rats; Study 4, 1.5 mg/kg) was “significantly different”, the “total distance travelled, compared to vehicle-amphetamine group” value (amphetamine-induced rats; Study 4, 1.5 mg/kg) was “significantly different” and the “stereotypic behaviour compared to the vehicle-amphetamine group and the corresponding dose of Valbenazine (conclusion)” value (amphetamine-induced rats; Study 4, both the tested doses (1 mg/kg and 1.5 mg/kg)) was “reduced stereotypic behaviour”.
